Earlier results in patent US9687554B2, “Finasteride and minoxidil polymeric nanoparticle its process of preparation, aqueous suspension containing the same, pharmaceutical composition, and its use” (Biolab Sanus Farmaceutica Ltda., priority 2012, dated 2017).

Tested on: men aged 18 to 41 years
Details: 1 mg daily, end of five years, 1553 men; placebo 75%

In the case of `CC(C)(C)NC(=O)[C@H]1CC[C@H]2[C@@H]3CC[C@H]4NC(=O)C=C[C@]4(C)[C@H]3CC[C@]12C` [finasteride], the “Patients who developed baldness” value is given as 10%.
